# Measured values published in ChEMBL document CHEMBL4507280 (2021).
# What was measured:
# [1] = system: Tyrosine-protein kinase ABL1 (Homo sapiens), P00519 [T315I]; conditions: Compound concentration 1000.0 nM
# [2] = biological target: Bone morphogenetic protein receptor type-1B (Homo sapiens) (UniProt O00238); conditions: Compound concentration 1000.0 nM
# [3] = biological target: Mitogen-activated protein kinase kinase kinase 20 (Homo sapiens) (UniProt Q9NYL2); conditions: Compound concentration 1000.0 nM
# [4] = biological target: Tyrosine-protein kinase ABL1 (Homo sapiens) (UniProt P00519); conditions: Compound concentration 1000.0 nM
# [5] = biological target: Mitogen-activated protein kinase 8 (Homo sapiens) (UniProt P45983); conditions: Compound concentration 1000.0 nM
# [6] = biological target: Cyclin-dependent kinase 14 (Homo sapiens) (UniProt O94921); conditions: Compound concentration 1000.0 nM
# [7] = biological target: Myosin-IIIa (Homo sapiens) (UniProt Q8NEV4); conditions: Compound concentration 1000.0 nM
# [8] = biological target: Serine/threonine-protein kinase DCLK1 (Homo sapiens) (UniProt O15075); conditions: Compound concentration 1000.0 nM
# Chain of Serine/threonine-protein kinase DCLK1 (Homo sapiens) (O15075 whole entry): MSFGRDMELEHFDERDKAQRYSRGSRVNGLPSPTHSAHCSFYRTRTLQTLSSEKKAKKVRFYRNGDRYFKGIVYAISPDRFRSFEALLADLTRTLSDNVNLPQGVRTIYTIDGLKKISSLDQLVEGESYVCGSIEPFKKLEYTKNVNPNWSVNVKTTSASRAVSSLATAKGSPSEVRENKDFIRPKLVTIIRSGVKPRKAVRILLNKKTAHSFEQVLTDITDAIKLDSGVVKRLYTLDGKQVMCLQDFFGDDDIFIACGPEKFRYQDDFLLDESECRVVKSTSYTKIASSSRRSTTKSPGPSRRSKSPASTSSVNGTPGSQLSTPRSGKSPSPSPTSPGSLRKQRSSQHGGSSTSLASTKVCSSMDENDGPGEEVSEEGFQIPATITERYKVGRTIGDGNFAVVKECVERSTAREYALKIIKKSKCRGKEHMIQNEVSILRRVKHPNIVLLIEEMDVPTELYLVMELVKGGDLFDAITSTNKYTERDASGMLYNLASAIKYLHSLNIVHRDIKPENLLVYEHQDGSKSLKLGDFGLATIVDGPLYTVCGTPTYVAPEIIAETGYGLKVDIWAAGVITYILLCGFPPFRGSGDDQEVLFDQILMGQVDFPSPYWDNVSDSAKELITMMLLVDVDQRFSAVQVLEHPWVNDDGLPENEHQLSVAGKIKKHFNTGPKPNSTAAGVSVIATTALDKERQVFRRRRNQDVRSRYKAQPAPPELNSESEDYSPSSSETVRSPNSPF
# [9] = biological target: MAP kinase-activated protein kinase 2 (Homo sapiens) (UniProt P49137); conditions: Compound concentration 1000.0 nM
# [10] = biological target: Platelet-derived growth factor receptor beta (Homo sapiens) (UniProt P09619); conditions: Compound concentration 1000.0 nM
# [11] = biological target: Serine/threonine-protein kinase 32A (Homo sapiens) (UniProt Q8WU08); conditions: Compound concentration 1000.0 nM
# Chain of Serine/threonine-protein kinase 32A (Homo sapiens) (Q8WU08 whole entry): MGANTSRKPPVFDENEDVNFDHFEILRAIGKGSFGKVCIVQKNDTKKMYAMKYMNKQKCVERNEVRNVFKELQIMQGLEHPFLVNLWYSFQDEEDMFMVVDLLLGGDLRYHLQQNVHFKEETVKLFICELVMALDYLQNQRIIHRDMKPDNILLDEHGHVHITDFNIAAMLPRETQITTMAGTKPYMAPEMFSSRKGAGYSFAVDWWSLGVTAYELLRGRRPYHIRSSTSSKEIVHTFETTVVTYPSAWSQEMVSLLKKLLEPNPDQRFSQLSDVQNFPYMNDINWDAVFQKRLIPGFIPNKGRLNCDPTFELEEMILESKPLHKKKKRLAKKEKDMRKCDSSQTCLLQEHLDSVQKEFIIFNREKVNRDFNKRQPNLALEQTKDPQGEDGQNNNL
# [12] = biological target: RAC-gamma serine/threonine-protein kinase (Homo sapiens) (UniProt Q9Y243); conditions: Compound concentration 1000.0 nM
# [13] = biological target: Serine/threonine-protein kinase TAO2 (Homo sapiens) (UniProt Q9UL54); conditions: Compound concentration 1000.0 nM
# [14] = system: Phosphatidylinositol 4,5-bisphosphate 3-kinase catalytic subunit alpha isoform (Homo sapiens), P42336 [E542K]; conditions: Compound concentration 1000.0 nM
# Chain of Phosphatidylinositol 4,5-bisphosphate 3-kinase catalytic subunit alpha isoform (Homo sapiens), P42336 [E542K] (P42336 whole entry E542K, canonical isoform): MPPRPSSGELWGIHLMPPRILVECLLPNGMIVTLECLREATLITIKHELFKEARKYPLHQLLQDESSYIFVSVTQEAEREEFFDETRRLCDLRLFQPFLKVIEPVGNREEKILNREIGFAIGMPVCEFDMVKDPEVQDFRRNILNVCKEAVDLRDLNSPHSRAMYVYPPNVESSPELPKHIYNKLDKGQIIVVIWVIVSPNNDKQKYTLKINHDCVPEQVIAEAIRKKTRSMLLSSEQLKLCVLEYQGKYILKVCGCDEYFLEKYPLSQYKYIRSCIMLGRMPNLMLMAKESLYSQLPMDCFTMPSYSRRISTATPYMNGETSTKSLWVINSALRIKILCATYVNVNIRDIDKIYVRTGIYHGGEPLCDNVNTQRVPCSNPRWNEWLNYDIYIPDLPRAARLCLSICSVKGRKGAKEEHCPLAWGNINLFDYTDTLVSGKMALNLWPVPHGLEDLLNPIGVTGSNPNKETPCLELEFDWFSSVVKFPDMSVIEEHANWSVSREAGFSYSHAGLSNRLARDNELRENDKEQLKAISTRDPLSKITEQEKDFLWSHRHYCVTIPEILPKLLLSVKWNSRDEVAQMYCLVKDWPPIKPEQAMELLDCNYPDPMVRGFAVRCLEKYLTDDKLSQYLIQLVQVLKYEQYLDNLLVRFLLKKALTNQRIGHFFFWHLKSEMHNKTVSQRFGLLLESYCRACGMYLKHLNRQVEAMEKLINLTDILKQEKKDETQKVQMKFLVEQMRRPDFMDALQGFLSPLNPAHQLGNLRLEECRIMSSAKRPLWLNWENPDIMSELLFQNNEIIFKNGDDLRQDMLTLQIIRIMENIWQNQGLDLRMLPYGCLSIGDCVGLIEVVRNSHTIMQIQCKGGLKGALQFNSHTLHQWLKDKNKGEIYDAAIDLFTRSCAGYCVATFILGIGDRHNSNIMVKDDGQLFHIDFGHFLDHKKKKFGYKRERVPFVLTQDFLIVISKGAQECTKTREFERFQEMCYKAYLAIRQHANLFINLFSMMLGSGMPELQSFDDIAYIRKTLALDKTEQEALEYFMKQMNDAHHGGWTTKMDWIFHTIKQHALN
# [15] = biological target: Receptor-type tyrosine-protein kinase FLT3 (Homo sapiens) (UniProt P36888); conditions: Compound concentration 1000.0 nM
# [16] = biological target: Bone morphogenetic protein receptor type-1A (Homo sapiens) (UniProt P36894); conditions: Compound concentration 1000.0 nM
# [17] = biological target: Cyclin-dependent kinase-like 5 (Homo sapiens) (UniProt O76039); conditions: Compound concentration 1000.0 nM
# [18] = system: Phosphatidylinositol 4,5-bisphosphate 3-kinase catalytic subunit alpha isoform (Homo sapiens), P42336 [Q546K]; conditions: Compound concentration 1000.0 nM
# [19] = biological target: Phosphatidylinositol 5-phosphate 4-kinase type-2 beta (Homo sapiens) (UniProt P78356); conditions: Compound concentration 1000.0 nM
# [20] = biological target: Serine/threonine-protein kinase Sgk3 (Homo sapiens) (UniProt Q96BR1); conditions: Compound concentration 1000.0 nM
# Chain of Serine/threonine-protein kinase Sgk3 (Homo sapiens) (Q96BR1 whole entry, canonical isoform): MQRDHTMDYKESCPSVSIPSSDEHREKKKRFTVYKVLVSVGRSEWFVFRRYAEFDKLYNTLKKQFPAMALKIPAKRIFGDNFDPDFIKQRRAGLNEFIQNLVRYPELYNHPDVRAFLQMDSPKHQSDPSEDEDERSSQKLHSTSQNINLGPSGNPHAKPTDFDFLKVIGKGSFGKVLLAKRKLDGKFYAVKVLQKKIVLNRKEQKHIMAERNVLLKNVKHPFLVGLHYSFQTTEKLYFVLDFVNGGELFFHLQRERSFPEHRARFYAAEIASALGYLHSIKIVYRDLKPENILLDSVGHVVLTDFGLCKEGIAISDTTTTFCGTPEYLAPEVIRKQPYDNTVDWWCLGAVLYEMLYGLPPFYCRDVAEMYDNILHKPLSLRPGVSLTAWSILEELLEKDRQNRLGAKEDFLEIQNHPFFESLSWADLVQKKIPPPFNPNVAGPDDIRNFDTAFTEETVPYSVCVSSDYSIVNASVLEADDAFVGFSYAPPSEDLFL
# [21] = system: Phosphatidylinositol 4,5-bisphosphate 3-kinase catalytic subunit alpha isoform (Homo sapiens), P42336 [I800L]; conditions: Compound concentration 1000.0 nM
# [22] = biological target: Serine/threonine-protein kinase PAK 2 (Homo sapiens) (UniProt Q13177); conditions: Compound concentration 1000.0 nM
# [23] = biological target: Tyrosine-protein kinase Srms (Homo sapiens) (UniProt Q9H3Y6); conditions: Compound concentration 1000.0 nM
# [24] = biological target: RAC-beta serine/threonine-protein kinase (Homo sapiens) (UniProt P31751); conditions: Compound concentration 1000.0 nM
# [25] = biological target: Ephrin type-A receptor 8 (Homo sapiens) (UniProt P29322); conditions: Compound concentration 1000.0 nM
# [26] = biological target: Serine/threonine-protein kinase ULK1 (Homo sapiens) (UniProt O75385); conditions: Compound concentration 1000.0 nM
# [27] = system: Epidermal growth factor receptor (Homo sapiens), P00533 [T790M]; conditions: Compound concentration 1000.0 nM
# [28] = biological target: Tyrosine-protein kinase Tec (Homo sapiens) (UniProt P42680); conditions: Compound concentration 1000.0 nM
# [29] = biological target: Calcium/calmodulin-dependent protein kinase type IV (Homo sapiens) (UniProt Q16566); conditions: Compound concentration 1000.0 nM
# [30] = system: Phosphatidylinositol 4,5-bisphosphate 3-kinase catalytic subunit alpha isoform (Homo sapiens), P42336 [E545K]; conditions: Compound concentration 1000.0 nM
# [31] = biological target: SNF-related serine/threonine-protein kinase (Homo sapiens) (UniProt Q9NRH2); conditions: Compound concentration 1000.0 nM
# [32] = biological target: Receptor tyrosine-protein kinase erbB-3 (Homo sapiens) (UniProt P21860); conditions: Compound concentration 1000.0 nM
# [33] = system: Phosphatidylinositol 4,5-bisphosphate 3-kinase catalytic subunit alpha isoform (Homo sapiens), P42336 [E545A]; conditions: Compound concentration 1000.0 nM
# [34] = biological target: Tyrosine-protein kinase Mer (Homo sapiens) (UniProt Q12866); conditions: Compound concentration 1000.0 nM
# [35] = biological target: Cyclin-dependent kinase-like 3 (Homo sapiens) (UniProt Q8IVW4); conditions: Compound concentration 1000.0 nM
# [36] = biological target: Cyclin-dependent kinase 11A (Homo sapiens) (UniProt Q9UQ88); conditions: Compound concentration 1000.0 nM
# Chain of Cyclin-dependent kinase 11A (Homo sapiens) (Q9UQ88 whole entry): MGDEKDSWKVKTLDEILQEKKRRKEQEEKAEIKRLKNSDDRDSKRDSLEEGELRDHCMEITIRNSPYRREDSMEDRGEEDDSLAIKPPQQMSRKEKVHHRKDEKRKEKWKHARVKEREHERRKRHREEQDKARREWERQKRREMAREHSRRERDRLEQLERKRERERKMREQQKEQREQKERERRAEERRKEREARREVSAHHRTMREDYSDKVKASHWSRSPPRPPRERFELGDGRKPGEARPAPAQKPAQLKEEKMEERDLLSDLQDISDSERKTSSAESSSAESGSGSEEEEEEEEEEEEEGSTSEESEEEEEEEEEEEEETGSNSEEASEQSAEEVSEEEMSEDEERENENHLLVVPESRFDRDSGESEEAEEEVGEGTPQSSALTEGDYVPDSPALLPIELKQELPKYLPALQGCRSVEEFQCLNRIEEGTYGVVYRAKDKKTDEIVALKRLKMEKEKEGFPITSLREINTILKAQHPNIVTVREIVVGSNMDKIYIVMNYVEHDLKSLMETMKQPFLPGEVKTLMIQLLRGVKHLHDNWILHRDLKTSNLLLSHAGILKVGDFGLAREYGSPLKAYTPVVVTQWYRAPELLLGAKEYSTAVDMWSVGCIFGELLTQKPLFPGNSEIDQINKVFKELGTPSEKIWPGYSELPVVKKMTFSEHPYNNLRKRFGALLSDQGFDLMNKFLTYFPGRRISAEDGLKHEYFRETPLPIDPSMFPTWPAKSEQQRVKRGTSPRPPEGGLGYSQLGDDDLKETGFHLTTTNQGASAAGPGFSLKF
# [37] = biological target: Proto-oncogene tyrosine-protein kinase ROS (Homo sapiens) (UniProt P08922); conditions: Compound concentration 1000.0 nM
# [38] = biological target: Leukocyte tyrosine kinase receptor (Homo sapiens) (UniProt P29376); conditions: Compound concentration 1000.0 nM
# [39] = biological target: D(3) dopamine receptor (Homo sapiens) (UniProt P35462); conditions: Compound concentration 10.0 uM
# [40] = biological target: Receptor-interacting serine/threonine-protein kinase 2 (Homo sapiens) (UniProt O43353); conditions: Compound concentration 1000.0 nM
# Chain of Receptor-interacting serine/threonine-protein kinase 2 (Homo sapiens) (O43353 whole entry): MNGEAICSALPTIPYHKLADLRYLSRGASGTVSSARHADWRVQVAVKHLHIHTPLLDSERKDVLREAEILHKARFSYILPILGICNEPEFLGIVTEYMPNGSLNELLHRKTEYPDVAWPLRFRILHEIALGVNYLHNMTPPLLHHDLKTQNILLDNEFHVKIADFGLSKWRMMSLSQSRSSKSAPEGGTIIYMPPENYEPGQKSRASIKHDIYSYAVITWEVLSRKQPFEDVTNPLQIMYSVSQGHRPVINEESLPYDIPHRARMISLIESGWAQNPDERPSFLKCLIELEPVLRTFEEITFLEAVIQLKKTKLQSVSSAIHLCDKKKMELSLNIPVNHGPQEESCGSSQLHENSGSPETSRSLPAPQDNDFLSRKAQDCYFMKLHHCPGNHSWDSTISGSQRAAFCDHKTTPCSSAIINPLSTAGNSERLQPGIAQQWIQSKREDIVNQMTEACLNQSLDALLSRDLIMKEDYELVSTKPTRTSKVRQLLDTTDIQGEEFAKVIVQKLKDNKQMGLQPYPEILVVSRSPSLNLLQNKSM
# [41] = biological target: Serine/threonine-protein kinase PLK3 (Homo sapiens) (UniProt Q9H4B4); conditions: Compound concentration 1000.0 nM
# [42] = system: Phosphatidylinositol 4,5-bisphosphate 3-kinase catalytic subunit alpha isoform (Homo sapiens), P42336 [H1047Y]; conditions: Compound concentration 1000.0 nM
# [43] = biological target: Serine/threonine-protein kinase N1 (Homo sapiens) (UniProt Q16512); conditions: Compound concentration 1000.0 nM
# Chain of Serine/threonine-protein kinase N1 (Homo sapiens) (Q16512 2-942 limits assumed): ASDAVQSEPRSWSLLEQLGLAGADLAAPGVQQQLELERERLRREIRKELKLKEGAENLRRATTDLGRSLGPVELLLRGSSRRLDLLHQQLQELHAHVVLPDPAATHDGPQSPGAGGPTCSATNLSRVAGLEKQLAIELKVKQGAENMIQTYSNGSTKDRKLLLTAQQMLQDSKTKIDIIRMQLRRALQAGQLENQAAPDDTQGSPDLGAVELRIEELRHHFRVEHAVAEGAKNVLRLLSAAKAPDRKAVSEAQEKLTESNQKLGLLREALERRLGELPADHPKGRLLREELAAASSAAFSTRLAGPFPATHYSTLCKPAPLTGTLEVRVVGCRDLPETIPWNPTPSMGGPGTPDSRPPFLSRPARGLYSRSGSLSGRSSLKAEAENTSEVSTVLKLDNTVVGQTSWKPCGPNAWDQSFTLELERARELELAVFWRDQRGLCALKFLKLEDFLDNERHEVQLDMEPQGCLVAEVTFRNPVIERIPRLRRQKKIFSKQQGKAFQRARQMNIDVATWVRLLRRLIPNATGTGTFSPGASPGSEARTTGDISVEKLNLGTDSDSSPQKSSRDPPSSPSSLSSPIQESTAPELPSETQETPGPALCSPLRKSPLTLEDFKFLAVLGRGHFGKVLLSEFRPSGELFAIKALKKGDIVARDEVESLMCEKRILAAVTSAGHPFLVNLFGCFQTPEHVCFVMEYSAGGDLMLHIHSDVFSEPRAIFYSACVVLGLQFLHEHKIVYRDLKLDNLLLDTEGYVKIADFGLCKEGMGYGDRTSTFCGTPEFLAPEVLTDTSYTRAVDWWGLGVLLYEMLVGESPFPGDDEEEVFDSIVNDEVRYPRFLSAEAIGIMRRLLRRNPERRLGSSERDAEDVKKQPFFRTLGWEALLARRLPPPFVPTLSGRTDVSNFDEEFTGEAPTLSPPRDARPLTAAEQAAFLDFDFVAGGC
# [44] = biological target: Mitotic checkpoint serine/threonine-protein kinase BUB1 (Homo sapiens) (UniProt O43683); conditions: Compound concentration 1000.0 nM
smiles,measurement,setting,value
CCC(=O)N[C@H]1CC[C@@H](C(=O)N(C)c2ccc(-c3nc4ccccc4o3)cc2)C1 [BI 99179],residual activity,[1],89%
same,residual activity,[2],91%
same,residual activity,[3],89%
same,residual activity,[4],85%
same,residual activity,[5],58%
same,residual activity,[6],92%
same,residual activity,[7],100%
same,residual activity,[8],100%
same,residual activity,[9],97%
same,residual activity,[10],89%
same,residual activity,[11],98%
same,residual activity,[12],100%
same,residual activity,[13],76%
same,residual activity,[14],77%
same,residual activity,[15],78%
same,residual activity,[16],88%
same,residual activity,[17],82%
same,residual activity,[18],91%
same,residual activity,[19],54%
same,residual activity,[20],66%
same,residual activity,[21],63%
same,residual activity,[22],100%
same,residual activity,[23],89%
same,residual activity,[24],89%
same,residual activity,[25],96%
same,residual activity,[26],78%
same,residual activity,[27],87%
same,residual activity,[28],100%
same,residual activity,[29],88%
same,residual activity,[30],74%
same,residual activity,[31],100%
same,residual activity,[32],100%
same,residual activity,[33],90%
same,residual activity,[34],100%
same,residual activity,[35],100%
same,residual activity,[36],97%
same,residual activity,[37],93%
same,residual activity,[38],100%
same,inhibition,[39],12.1%
same,residual activity,[40],100%
same,residual activity,[41],74%
same,residual activity,[42],97%
same,residual activity,[43],83%
same,residual activity,[44],74%
CCC(=O)N[C@@H]1CC[C@H](C(=O)N(C)c2ccc(-c3nc4ccccc4o3)cc2)C1 [BI 99990],residual activity,[1],87%
same,residual activity,[2],100%
same,residual activity,[3],78%
same,residual activity,[4],76%
same,residual activity,[5],53%
same,residual activity,[6],100%
same,residual activity,[7],100%
same,residual activity,[8],88%
same,residual activity,[9],87%
same,residual activity,[10],98%
same,residual activity,[11],100%
same,residual activity,[12],100%
same,residual activity,[13],89%
same,residual activity,[14],84%
same,residual activity,[15],89%
same,residual activity,[16],96%
same,residual activity,[17],100%
same,residual activity,[18],100%
same,residual activity,[19],45%
same,residual activity,[20],100%
same,residual activity,[21],100%
same,residual activity,[22],86%
same,residual activity,[23],84%
same,residual activity,[24],72%
same,residual activity,[25],100%
same,residual activity,[26],100%
same,residual activity,[27],96%
same,residual activity,[28],100%
same,residual activity,[29],100%
same,residual activity,[30],75%
same,residual activity,[31],100%
same,residual activity,[32],100%
same,residual activity,[33],77%
same,residual activity,[34],100%
same,residual activity,[35],79%
same,residual activity,[36],100%
same,residual activity,[37],100%
same,residual activity,[38],93%
same,inhibition,[39],4.36%
same,residual activity,[40],85%
same,residual activity,[41],84%
same,residual activity,[42],100%
same,residual activity,[43],84%
same,residual activity,[44],89%
